# Measured values reported in PubChem BioAssay AID270 (DTP/NCI, 2004).
# Values joined by “and” are separate entries in the source; they are usually repeats but may differ in a detail not shown here. Equal values may be shown once. Records with an inconclusive call do not appear.
# System: BDF1 mice, s.c. Lewis lung carcinoma, T/C %
# Test: NCI In Vivo Anticancer Drug Screen. Data for tumor model Lewis Lung Carcinoma (subcutaneous) in B6D2F1 (BDF1) mice
# Summary of the method: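 Antitumor effect in vivo is scored from survival or tumor burden, reported as treated relative to vehicle controls.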
# [1] = endpoint: mean tumor weight, dose: 25.0 mg/kg/injection, schedule: Q01DX011 (ip), vehicle: saline, higher = larger tumour
# [2] = endpoint: mean tumor weight, dose: 50.0 mg/kg/injection, schedule: Q01DX011 (ip), vehicle: saline, higher = larger tumour
# [3] = endpoint: mean tumor weight, dose: 100.0 mg/kg/injection, schedule: Q01DX011 (ip), vehicle: saline, higher = larger tumour
# [4] = endpoint: median survival time, dose: 100.0 mg/kg/injection, schedule: Q01DX009 (ip), vehicle: saline, higher = longer survival
# [5] = endpoint: median survival time, dose: 6.25 mg/kg/injection, schedule: Q01DX009 (ip), vehicle: Klucel (hydroxypropylcellulose) (HPC), higher = longer survival
# [6] = endpoint: median survival time, dose: 25.0 mg/kg/injection, schedule: Q01DX009 (ip), vehicle: Klucel (hydroxypropylcellulose) (HPC), higher = longer survival
smiles,measurement,setting,value
CCOC(=O)C1=NNC(=O)C1,T/C,"endpoint: mean tumor weight, dose: 222.0 mg/kg/injection, schedule: Q01DX011 (ip), vehicle: other, higher = larger tumour",119 % of control
same,T/C,"endpoint: mean tumor weight, dose: 333.0 mg/kg/injection, schedule: Q01DX011 (ip), vehicle: other, higher = larger tumour",118 % of control
same,T/C,"endpoint: mean tumor weight, dose: 500.0 mg/kg/injection, schedule: Q01DX011 (ip), vehicle: other, higher = larger tumour",75 % of control
same,T/C,"endpoint: mean tumor weight, dose: 750.0 mg/kg/injection, schedule: Q01DX011 (ip), vehicle: other, higher = larger tumour",108 % of control
O=P(N1CC1)(N1CC1)N1CC1,T/C,"endpoint: mean tumor weight, dose: 0.2 mg/kg/injection, schedule: Q01DX011 (ip), vehicle: other, higher = larger tumour",90 % of control
same,T/C,"endpoint: mean tumor weight, dose: 0.4 mg/kg/injection, schedule: Q01DX011 (ip), vehicle: other, higher = larger tumour",62 % of control
same,T/C,"endpoint: mean tumor weight, dose: 0.8 mg/kg/injection, schedule: Q01DX011 (ip), vehicle: other, higher = larger tumour",58 % of control and 69 % of control
same,T/C,"endpoint: mean tumor weight, dose: 1.3 mg/kg/injection, schedule: Q01DX011 (ip), vehicle: other, higher = larger tumour",37 % of control and 45 % of control and 62 % of control
same,T/C,"endpoint: mean tumor weight, dose: 2.0 mg/kg/injection, schedule: Q01DX011 (ip), vehicle: other, higher = larger tumour",70 % of control
CS(=O)(=O)OCCCCCCCCCOS(C)(=O)=O,T/C,"endpoint: mean tumor weight, dose: 12.5 mg/kg/injection, schedule: Q01DX011 (ip), vehicle: carboxymethylcellulose (CMC), higher = larger tumour",104 % of control and 105 % of control
same,T/C,"endpoint: mean tumor weight, dose: 25.0 mg/kg/injection, schedule: Q01DX011 (ip), vehicle: carboxymethylcellulose (CMC), higher = larger tumour",68 % of control and 84 % of control
COC1C(O)CC(OC2CC(Oc3cc4cc5c(c(O)c4c(O)c3C)C(=O)[C@@H](OC3CC(OC4CC(OC6CC(C)(O)C(OC(C)=O)C(C)O6)C(O)C(C)O4)C(O)C(C)O3)[C@H]([C@H](OC)C(=O)[C@@H](O)[C@@H](C)O)C5)OC(C)C2OC(C)=O)OC1C (stereo partly specified),T/C,"endpoint: mean tumor weight, dose: 33.0 micrograms/kg/injection, schedule: Q01DX011 (ip), vehicle: saline with Tween-80, higher = larger tumour",93 % of control
same,T/C,"endpoint: mean tumor weight, dose: 65.0 micrograms/kg/injection, schedule: Q01DX011 (ip), vehicle: saline with Tween-80, higher = larger tumour",82 % of control
same,T/C,"endpoint: mean tumor weight, dose: 130.0 micrograms/kg/injection, schedule: Q01DX011 (ip), vehicle: saline with Tween-80, higher = larger tumour",66 % of control
same,T/C,"endpoint: median survival time, dose: 0.02 mg/kg/injection, schedule: Q01DX011 (ip), vehicle: other, higher = longer survival",107 % of control
CCCCOP(=S)(N1CC1)N1CC1,T/C,"endpoint: mean tumor weight, dose: 2.5 mg/kg/injection, schedule: Q01DX011 (ip), vehicle: saline, higher = larger tumour",79 % of control
same,T/C,"endpoint: mean tumor weight, dose: 5.0 mg/kg/injection, schedule: Q01DX011 (ip), vehicle: saline, higher = larger tumour",52 % of control
same,T/C,"endpoint: mean tumor weight, dose: 10.0 mg/kg/injection, schedule: Q01DX011 (ip), vehicle: saline, higher = larger tumour",23 % of control
C#C[C@]1(O)CC[C@H]2[C@@H]3CCc4cc(O)ccc4[C@H]3CC[C@@]21C,T/C,"endpoint: median survival time, dose: 1.25 mg/kg/injection, schedule: Q02DX009 (ip), vehicle: Klucel (hydroxypropylcellulose) (HPC), higher = longer survival",88 % of control
same,T/C,"endpoint: median survival time, dose: 2.5 mg/kg/injection, schedule: Q02DX009 (ip), vehicle: Klucel (hydroxypropylcellulose) (HPC), higher = longer survival",92 % of control
same,T/C,"endpoint: median survival time, dose: 5.0 mg/kg/injection, schedule: Q02DX009 (ip), vehicle: Klucel (hydroxypropylcellulose) (HPC), higher = longer survival",96 % of control
same,T/C,"endpoint: median survival time, dose: 10.0 mg/kg/injection, schedule: Q02DX009 (ip), vehicle: Klucel (hydroxypropylcellulose) (HPC), higher = longer survival",91 % of control and 101 % of control
same,T/C,"endpoint: median survival time, dose: 20.0 mg/kg/injection, schedule: Q02DX009 (ip), vehicle: Klucel (hydroxypropylcellulose) (HPC), higher = longer survival",104 % of control
same,T/C,"endpoint: median survival time, dose: 40.0 mg/kg/injection, schedule: Q02DX009 (ip), vehicle: Klucel (hydroxypropylcellulose) (HPC), higher = longer survival",108 % of control and 120 % of control
c1cc2n(n1)CCN2,T/C,"endpoint: mean tumor weight (est.), dose: 50.0 mg/kg/injection, schedule: Q01DX009 (ip), vehicle: saline, higher = larger tumour",56 % of control
same,T/C,"endpoint: mean tumor weight (est.), dose: 100.0 mg/kg/injection, schedule: Q01DX009 (ip), vehicle: saline, higher = larger tumour",37 % of control
same,T/C,"endpoint: mean tumor weight (est.), dose: 100.0 mg/kg/injection, schedule: Q04DX003 (ip), vehicle: saline, higher = larger tumour",70 % of control
same,T/C,"endpoint: mean tumor weight (est.), dose: 200.0 mg/kg/injection, schedule: Q01DX009 (ip), vehicle: saline, higher = larger tumour",36 % of control
same,T/C,"endpoint: mean tumor weight (est.), dose: 200.0 mg/kg/injection, schedule: Q04DX003 (ip), vehicle: saline, higher = larger tumour",79 % of control
same,T/C,"endpoint: mean tumor weight (est.), dose: 400.0 mg/kg/injection, schedule: Q04DX003 (ip), vehicle: saline, higher = larger tumour",57 % of control
same,T/C,[1],97 % of control
same,T/C,[2],84 % of control
same,T/C,[3],82 % of control
same,T/C,"endpoint: mean tumor weight, dose: 200.0 mg/kg/injection, schedule: Q01DX011 (ip), vehicle: saline, higher = larger tumour",7 % of control
same,T/C,"endpoint: median survival time, dose: 50.0 mg/kg/injection, schedule: Q01DX009 (ip), vehicle: saline, higher = longer survival",122 % of control
same,T/C,[4],100 % of control
same,T/C,"endpoint: median survival time, dose: 100.0 mg/kg/injection, schedule: Q04DX003 (ip), vehicle: saline, higher = longer survival",102 % of control
same,T/C,"endpoint: median survival time, dose: 200.0 mg/kg/injection, schedule: Q01DX009 (ip), vehicle: saline, higher = longer survival",100 % of control
same,T/C,"endpoint: median survival time, dose: 400.0 mg/kg/injection, schedule: Q04DX003 (ip), vehicle: saline, higher = longer survival",88 % of control
CCOC(=O)C(CC(C)C)NC(=O)C(Cc1ccc(N(CCCl)CCCl)cc1)NC(C)=O (stereo unspecified),T/C,"endpoint: median survival time, dose: 1.0 mg/kg/injection, schedule: Q01DX009 (ip), vehicle: saline with Tween-80, higher = longer survival",88 % of control
same,T/C,"endpoint: median survival time, dose: 2.0 mg/kg/injection, schedule: Q01DX009 (ip), vehicle: saline with Tween-80, higher = longer survival",95 % of control
same,T/C,"endpoint: median survival time, dose: 4.0 mg/kg/injection, schedule: Q01DX009 (ip), vehicle: saline with Tween-80, higher = longer survival",111 % of control
same,T/C,"endpoint: median survival time, dose: 8.0 mg/kg/injection, schedule: Q01DX009 (ip), vehicle: saline with Tween-80, higher = longer survival",108 % of control
same,T/C,"endpoint: median survival time, dose: 16.0 mg/kg/injection, schedule: Q01DX009 (ip), vehicle: saline with Tween-80, higher = longer survival",116 % of control
COC12C(COC(=O)NCCO)C3=C(C(=O)C(C)=C(N)C3=O)N1CC1NC12 (stereo unspecified),T/C,"endpoint: median survival time, dose: 3.13 mg/kg/injection, schedule: Q01DX009 (ip), vehicle: Klucel (hydroxypropylcellulose) (HPC), higher = longer survival",94 % of control
same,T/C,[5],92 % of control
same,T/C,[6],94 % of control
CCN(CC)C(=S)S,T/C,"endpoint: mean tumor weight, dose: 125.0 mg/kg/injection, schedule: Q01DX011 (ip), vehicle: saline, higher = larger tumour",86 % of control
same,T/C,"endpoint: median survival time, dose: 125.0 mg/kg/injection, schedule: Q01DX011 (ip), vehicle: saline, higher = longer survival",123 % of control and 124 % of control
same,T/C,"endpoint: median survival time, dose: 250.0 mg/kg/injection, schedule: Q01DX011 (ip), vehicle: saline, higher = longer survival",112 % of control and 116 % of control
same,T/C,"endpoint: median survival time, dose: 500.0 mg/kg/injection, schedule: Q01DX011 (ip), vehicle: saline, higher = longer survival",104 % of control and 105 % of control
same,T/C,"endpoint: median survival time, dose: 1000.0 mg/kg/injection, schedule: Q01DX011 (ip), vehicle: saline, higher = longer survival",102 % of control and 105 % of control
CN(Cc1cnc2nc(N)nc(N)c2n1)c1c(Cl)cc(C(=O)NC(CCC(=O)O)C(=O)O)cc1Cl (stereo unspecified),T/C,"endpoint: median survival time, dose: 90.0 mg/kg/injection, schedule: Q01DX009 (ip), vehicle: sodium bicarbonate, higher = longer survival",110 % of control
same,T/C,"endpoint: median survival time, dose: 560.0 mg/kg/injection, schedule: Q04DX003 (ip), vehicle: sodium bicarbonate, higher = longer survival",112 % of control
same,T/C,"endpoint: median survival time, dose: 626.0 mg/kg/injection, schedule: Q01DX001 (ip), vehicle: sodium bicarbonate, higher = longer survival",116 % of control
same,T/C,"endpoint: median survival time, dose: 840.0 mg/kg/injection, schedule: Q04DX003 (ip), vehicle: sodium bicarbonate, higher = longer survival",108 % of control
same,T/C,"endpoint: median survival time, dose: 933.0 mg/kg/injection, schedule: Q01DX001 (ip), vehicle: sodium bicarbonate, higher = longer survival",92 % of control
same,T/C,"endpoint: median survival time, dose: 1400.0 mg/kg/injection, schedule: Q01DX001 (ip), vehicle: sodium bicarbonate, higher = longer survival",100 % of control
Cc1ccc(NC(=O)N(CCCl)N=O)cc1C,T/C,"endpoint: median survival time, dose: 3.12 mg/kg/injection, schedule: Q01DX009 (ip), vehicle: Klucel (hydroxypropylcellulose) (HPC), higher = longer survival",112 % of control
same,T/C,[5],87 % of control
O=c1[nH]c(=O)n(C2CC(O)C(CO)O2)cc1C(F)(F)F (stereo unspecified),T/C,"endpoint: median survival time, dose: 2.5 mg/kg/injection, schedule: Q01DX009 (ip), vehicle: saline, higher = longer survival",119 % of control
same,T/C,"endpoint: median survival time, dose: 5.0 mg/kg/injection, schedule: Q01DX009 (ip), vehicle: saline, higher = longer survival",103 % of control
same,T/C,"endpoint: median survival time, dose: 10.0 mg/kg/injection, schedule: Q01DX009 (ip), vehicle: saline, higher = longer survival",118 % of control
CN(C)C=Nc1ccc2c3c(cccc13)CC2,T/C,[5],108 % of control
same,T/C,"endpoint: median survival time, dose: 12.5 mg/kg/injection, schedule: Q01DX009 (ip), vehicle: Klucel (hydroxypropylcellulose) (HPC), higher = longer survival",107 % of control
same,T/C,[6],122 % of control
CCCOP(=S)(N1CC1)N1CC1,T/C,"endpoint: median survival time, dose: 18.75 mg/kg/injection, schedule: Q01DX009 (ip), vehicle: Klucel (hydroxypropylcellulose) (HPC), higher = longer survival",112 % of control
same,T/C,"endpoint: median survival time, dose: 37.5 mg/kg/injection, schedule: Q01DX009 (ip), vehicle: Klucel (hydroxypropylcellulose) (HPC), higher = longer survival",95 % of control
same,T/C,"endpoint: median survival time, dose: 75.0 mg/kg/injection, schedule: Q01DX009 (ip), vehicle: Klucel (hydroxypropylcellulose) (HPC), higher = longer survival",94 % of control
same,T/C,[4],116 % of control
NC(=O)n1cccn1,T/C,[1],76 % of control
same,T/C,"endpoint: mean tumor weight, dose: 25.0 mg/kg/injection, schedule: Q01DX011 (ip), vehicle: water, higher = larger tumour",88 % of control
same,T/C,[2],61 % of control
same,T/C,"endpoint: mean tumor weight, dose: 50.0 mg/kg/injection, schedule: Q01DX011 (ip), vehicle: water, higher = larger tumour",61 % of control
same,T/C,[3],49 % of control
same,T/C,"endpoint: mean tumor weight, dose: 100.0 mg/kg/injection, schedule: Q01DX011 (ip), vehicle: water, higher = larger tumour",39 % of control
